Tests used:
[1] = tested on: gout-like disturbance of the purine metabolism; experiment: 3-day cycle in the oxonate rat (uric acid in urine on days 1-3 and in serum on day 3); format: in vivo, white male Wistar rats; conditions: for Serum Uric acid conc.: third day, * statistically significant p < 0.05 (Duncan test)
Procedure: (§1) The uricosuric and hypouricemic effects were observed by way of experiment on the oxonate rat. In this experimental test arrangement the uricase activity of the rat liver was inhibited by the administration of potassium oxonate, thus producing a gout-like disturbance of the purine metabolism. The effect was tested in the following test arrangement:
2. The influence on the gout-like metabolism disturbance which had been induced by way of experiment was also examined in a 3-day cycle. For this purpose, the animals (white male Wistar rats) were placed into the metabolism cages 18 hours prior to the start of the experiment. The animals drank water, and they were offered a special fodder mixture to consume ad libitum. The composition of the fodder mixture was as follows: 5 % of fructose, 3% of uric acid, 2 % of potassium oxonate, and 100 mg of synthetic sweetening agent (acesulfame) per 1 kg of body weight. On the first and second days of the experiment, the compositions were administered to the animals, in a 0.5 % potassium-oxanate solution, into the stomach by way of an esophagal sound. The urine samples were examined on the first, second and third days of the experiment, and the serum samples were tested for their uric acid content on the third day of the experiment.
In Table 4 the results following the application of allopurinol (as comparative substance) have been indicated in the above-mentioned experimental scheme.

[2] = tested on: gout-like disturbance of the purine metabolism; experiment: 24-hour test in the oxonate rat (uric acid, urine volume, pH and Na+ after potassium oxonate); format: in vivo, male Wistar rats; conditions: for Uric acid serum (-x (mg %) ± SD): control 5.41 + 0.66, * statistically significant (U test); for Activity in words (heading of Table 2): Example 14 combined with the increase of diuresis and the excretion of sodium
Procedure: as §1
1. The influence on the gout-like disturbance of the purine metabolism which had been induced by way of experiment was tested in a 24 hour test. In this test arrangement, the animals are given the substances in a 0.5 % potassium-oxonate solution into the stomach by means of an esophagal sound, after water and fodder had been withheld for 18 hours. During the entire test period, the animals are given the 0.5 % potassium-oxonate solution ad libitum. After 8 hours, they are additionally given 5 ml of water per 100 g of body weight into the stomach, by way of an esophagal sound. After 24 hours urine samples were taken, the animals were killed in a narcosis produced by ether, and the blood and urine were analysed for the content of uric acid. In addition, the creatinine concentration, the sodium, potassium and chloride concentration in the urine and serum samples were determined.

[3] = Table 3, 3 mg/kg, 1st day, oxonate control 3.38
[4] = Table 3, 3 mg/kg, 1st day, oxonate control 42.5
[5] = Table 3, 3 mg/kg, 2nd day, oxonate control 3.83
[6] = Table 3, 3 mg/kg, 2nd day, oxonate control 42.9
[7] = Table 3, 3 mg/kg, 3rd day, oxonate control 5.17
[8] = Table 3, 3 mg/kg, 3rd day, oxonate control 48.8
[9] = Table 3, 3 mg/kg, oxonate control 5.49
[10] = Table 2 II, 0.3 mg/kg, control = 100
[11] = Table 2 II, 3.0 mg/kg, control = 100
[12] = Table 2 I, 3 mg/kg, oxonate control group = 100

With `O=C(ON=CC(=C(Br)c1ccccc1)c1ccccc1)c1ccccc1` [Example 5, O-benzoyl-2-phenyl-3-bromo-cinnamic aldoxime] the “Urine Amount of uric acid” value [1, 3] was 2.59 mg/24 h, the “Urine Uric acid conc.” value [1, 4] was 38.9 mg % and the “Urine Amount of uric acid” value [1, 5] was 2.41 mg/24 h. For the same compound, the “Urine Uric acid conc.” value [1, 6] was 32.4 mg %, the “Urine Amount of uric acid” value [1, 7] was 3.68 mg/24 h and the “Urine Uric acid conc.” value [1, 8] was 34.7 mg %. The “Serum Uric acid conc.” value [1, 9] was 4.07 mg %.
For `CC(=O)ON=CC(=C(Br)c1ccccc1)c1ccccc1` [Example 6, O-acetyl-2-phenyl-3-bromo-cinnamic aldoxime], the “Urine Amount of uric acid” value [1, 3] was 2.40 mg/24 h, the “Urine Uric acid conc.” value [1, 4] was 33.4 mg % and the “Urine Amount of uric acid” value [1, 5] was 2.96 mg/24 h. For the same compound, the “Urine Uric acid conc.” value [1, 6] was 32.8 mg %, the “Urine Amount of uric acid” value [1, 7] was 2.98 mg/24 h and the “Urine Uric acid conc.” value [1, 8] was 32.7 mg %. For the same compound, the “Serum Uric acid conc.” value [1, 9] was 3.65 mg %.
For `CCCCCCCCCC(=O)ON=CC(=C(Cl)c1ccc(OC)cc1)c1ccc(OC)cc1` [Example 8, O-caprinoyl-2-(4-methoxyphenyl)-3-chloro-p-methoxy-cinnamic aldoxime], the “Uric acid excretion (-x ± SD)” value ([2]; Table 2 II, 0.3 mg/kg, control 2.74 + 1.43) was 3.25 + 1.68 mg/24 hr./100 g b. wt, the “Uric acid serum (-x (mg %) ± SD)” value ([2]; Table 2 II, 0.3 mg/kg) was 5.00 + 0.54 mg % and the “Uric acid excretion, % control” value [2, 10] was 118 % control. The “Uric acid serum, % control” value [2, 10] was 92 % control, the “Uric acid excretion (-x ± SD)” value ([2]; Table 2 II, 3.0 mg/kg, control 2.74 + 1.43) was 2.46 + 1.19 mg/24 hr./100 g b. wt and the “Uric acid serum (-x (mg %) ± SD)” value ([2]; Table 2 II, 3.0 mg/kg) was 4.81 + 0.74 mg %. For the same compound, the “Uric acid excretion, % control” value [2, 11] was 89 % control, the “Uric acid serum, % control” value [2, 11] was 88 % control and the “Activity in words (heading of Table 2)” value ([2]; oxonate rat) was “uricosuric and hypouricemic activity”.
With `O=C(Nc1ccccc1)ON=CC(=C(Br)c1ccccc1)c1ccccc1` [Example 14, 2-phenyl-3-bromo-cinnamic aldoxime-O-(N-phenyl)-carbamate] the “Amount of urine Na+” value ([2]; Table 2 I, 3 mg/kg, control 0.09 + 0.03) was 0.11 + 0.02 mg/24 hr/100 g b. wt, the “Amount of urine excreted (-x + SD)” value ([2]; Table 2 I, 3 mg/kg, control 7.1 + 2.1) was 9.3 + 3.06 ml/24 hr./100 g b. wt and the “urine pH” value ([2]; Table 2 I, 3 mg/kg, control 7.5 + 0.2, * statistically significant (Scheffe test)) was 7.2 + 0.08. For the same compound, the “Amount of urine excreted, % control” value [2, 12] was 130 % control, the “Uric acid excretion, % control” value [2, 12] was 118 % control and the “Uric acid excretion (-x ± SD)” value ([2]; Table 2 I, oxonate rat, 3 mg/kg, into the stomach) was 3.52 ± 1.11 mg/24 hr./100 g b. wt. The “Activity in words (heading of Table 2)” value ([2]; oxonate rat) was “uricosuric activity”.
For `Oc1ncnc2[nH]ncc12` [Allo, Allopurinol, reference compound], the “Urine Amount of uric acid” value ([1]; Table 4, 50 mg/kg, 1st day, oxonate control 0.80) was 0.91 mg/24 h, the “Urine Uric acid conc.” value ([1]; Table 4, 50 mg/kg, 1st day, oxonate control 11.3) was 11.6 mg % and the “Urine Amount of uric acid” value ([1]; Table 4, 50 mg/kg, 2nd day, oxonate control 2.6) was 2.1 mg/24 h. The “Urine Uric acid conc.” value ([1]; Table 4, 50 mg/kg, 2nd day, oxonate control 23.9) was 18.7 mg %, the “Urine Amount of uric acid” value ([1]; Table 4, 50 mg/kg, 3rd day, oxonate control 3.4) was 3.8 mg/24 h and the “Urine Uric acid conc.” value ([1]; Table 4, 50 mg/kg, 3rd day, oxonate control 36.4) was 31.6 mg %. For the same compound, the “Serum Uric acid conc.” value ([1]; Table 4, 50 mg/kg, oxonate control 6.7) was 6.2 mg %, the “Urine Amount of uric acid” value ([1]; Table 4, 100 mg/kg, 1st day, oxonate control 0.80) was 0.9 mg/24 h and the “Urine Uric acid conc.” value ([1]; Table 4, 100 mg/kg, 1st day, oxonate control 11.3) was 12.7 mg %. For the same compound, the “Urine Amount of uric acid” value ([1]; Table 4, 100 mg/kg, 2nd day, oxonate control 2.6) was 2.0 mg/24 h, the “Urine Uric acid conc.” value ([1]; Table 4, 100 mg/kg, 2nd day, oxonate control 23.9) was 19.9 mg % and the “Urine Amount of uric acid” value ([1]; Table 4, 100 mg/kg, 3rd day, oxonate control 3.4) was 3.7 mg/24 h. For the same compound, the “Urine Uric acid conc.” value ([1]; Table 4, 100 mg/kg, 3rd day, oxonate control 36.4) was 28.2 mg % and the “Serum Uric acid conc.” value ([1]; Table 4, 100 mg/kg, oxonate control 6.7) was 5.2 mg %.
In the case of `CCCCCCCCCC(=O)ON=CC(=C(Br)c1ccccc1)c1ccccc1` [Example 7, O-caprinoyl-2-phenyl-3-bromo-cinnamic aldoxime], the “Urine Amount of uric acid” value [1, 3] is reported as 2.78 mg/24 h, the “Urine Uric acid conc.” value [1, 4] is reported as 36.4 mg % and the “Urine Amount of uric acid” value [1, 5] is reported as 2.99 mg/24 h. The “Urine Uric acid conc.” value [1, 6] was 31.8 mg %, the “Urine Amount of uric acid” value [1, 7] was 2.74 mg/24 h and the “Urine Uric acid conc.” value [1, 8] was 31.2 mg %. The “Serum Uric acid conc.” value [1, 9] was 4.03 mg %.

— patent US4056629A, “Pharmacologically active O-acyl-2,3-diaryl-3-halogeno-acryl-aldoximes” (Hoechst Aktiengesellschaft, priority 1975, dated 1977)
